Reference: patent publication US12534450B2, “Methods and compositions for targeting PD-L1” (Aligos Therapeutics, Inc., priority 2021, dated 2026)

Key:
[1] = target: PD-1/PD-L1 PPI (Homo sapiens, UniProt Q9NZQ7); test: PDL1/PD1 Binding Assay; details: PDL1-6×His 0.3 nM, PD1-Fc-Avi-Biotin 2.5 nM, Acceptor/Donor beads, Envision reader
In short: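 AlphaScreen competition: compound (1% DMSO) preincubated 30 min RT with PDL1-6×His (0.3 nM), then PD1-Fc-Avi-Biotin (2.5 nM) 30 min; anti-His acceptor and streptavidin donor beads (20 ug/mL each) added, 1 h each, dark up to overnight. Buffer 25 mM Hepes pH 7.4, 150 mM NaCl. IC50 by four-parameter fit.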

[2] = system: PD-1/PD-L1 interaction; test: PD-1/PD-L1 NFAT Reporter Assay (co-culture of Jurkat T cells overexpressing PD-1 and PD-L1 expressing CHO cells); assay type: cell-based; details: co-culture 6 hrs at 37° C., NFAT-mediated luciferase activity
In short: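 Compounds added to CHO cells expressing surface anti-CD3 and PD-L1, then Jurkat cells with PD-1 and NFAT-driven luciferase seeded on top; co-culture 6 hrs at 37° C. Luminescence read after ONE-Glo addition, EC50 from dose-response fit.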

Sequence of PD-1/PD-L1 PPI (Q9NZQ7 19-238 limits assumed): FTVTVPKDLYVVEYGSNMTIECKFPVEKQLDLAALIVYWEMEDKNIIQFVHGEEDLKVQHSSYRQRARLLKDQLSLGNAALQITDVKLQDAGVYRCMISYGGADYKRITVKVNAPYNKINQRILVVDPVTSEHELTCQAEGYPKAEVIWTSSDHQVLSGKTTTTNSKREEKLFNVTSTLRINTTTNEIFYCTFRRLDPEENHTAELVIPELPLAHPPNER

Row | SMILES | IC50 [1] [µM] | EC50 ([2]; Homo sapiens, Jurkat, 6 h) [µM] | EC50 [2] [µM]
1 | COc1nc(-c2cccc(-c3cccc(NC(=O)c4cn(C)c(=O)n(C)c4=O)c3Cl)c2Cl)cc2c1[C@H](N1CC3(COCC(=O)N3)C1)CC2 (single isomer, unassigned) [Compound A-134] | ≤ 0.01 | ≤ 0.01 | –
2 | COc1nc(-c2cccc(-c3cccc(NC(=O)c4cn(C)c(=O)n(C)c4=O)c3Cl)c2Cl)cc2c1[C@H](NC[C@@H]1CNC(=O)C1)CC2 (single isomer, unassigned) [Compound A-136] | ≤ 0.01 | ≤ 0.01 | –
3 | COc1nc(-c2cccc(-c3cccc(NC(=O)c4cn(C)c(=O)n(C)c4=O)c3C)c2Cl)cc2c1[C@@H](NC[C@@H]1CNC(=O)C1)CC2 (single isomer, unassigned) [Compound A-137] | ≤ 0.01 | 1 to 10 | –
4 | COc1nc(-c2cccc(-c3cccc(NC(=O)c4cn(C)c(=O)n(C)c4=O)c3Cl)c2Cl)cc2c1[C@@H](N1CC(C(=O)O)C1)CC2 (single isomer, unassigned) [Compound J-3] | ≤ 0.01 | ≤ 0.01 | –
5 | COc1nc(-c2cccc(-c3cccc(NC(=O)c4cn(C)c(=O)n(C)c4=O)c3Cl)c2Cl)cc2c1[C@H](N1CC(C(=O)O)C1)CC2 (single isomer, unassigned) [Compound J-4] | ≤ 0.01 | 0.1 to 1 | –
6 | COc1nc(-c2cccc(-c3cccc(NC(=O)c4cn(C)c(=O)n(C)c4=O)c3C)c2Cl)cc2c1[C@@H](NC[C@@H]1CCC(=O)N1)CC2 [Compound A-2] | ≤ 0.01 | ≤ 0.01 | –
7 | COc1nc(-c2cccc(-c3cccc(NC(=O)c4cn(C)c(=O)n(C)c4=O)c3F)c2Cl)cc2c1[C@@H](NC[C@@H]1CCC(=O)N1)CC2 [Compound A-3] | ≤ 0.01 | ≤ 0.01 | –
8 | COc1nc(-c2cccc(-c3cccc(NC(=O)c4cn(C)c(=O)n(C)c4=O)c3C)c2C)cc2c1[C@@H](NC[C@@H]1CCC(=O)N1)CC2 [Compound A-5] | ≤ 0.01 | ≤ 0.01 | –
9 | COc1nc(-c2cccc(-c3cccc(NC(=O)c4cn(C)c(=O)n(C)c4=O)c3F)c2F)cc2c1[C@H](NC[C@@H]1CCC(=O)N1)CC2 [Compound A-17] | ≤ 0.01 | 0.1 to 1 | –
10 | COc1nc(-c2cccc(-c3cccc(NC(=O)c4ccnn(C)c4=O)c3Cl)c2Cl)cc2c1[C@@H](NC[C@@H]1CCC(=O)N1)CC2 [Compound A-43] | ≤ 0.01 | ≤ 0.01 | –
11 | COc1nc(-c2cccc(-c3cccc(NC(=O)c4ccnn(C)c4=O)c3Cl)c2Cl)cc2c1[C@@H](NC[C@@H]1CCC(=O)N1)CO2 [Compound A-44] | ≤ 0.01 | 0.01 to 0.1 | –
12 | COc1nc(-c2cccc(-c3cccc(NC(=O)c4ccnn(C)c4=O)c3C)c2F)cc2c1[C@@H](NC[C@@H]1CCC(=O)N1)CC2 [Compound A-45] | ≤ 0.01 | 0.01 to 0.1 | –
13 | COc1nc(-c2cccc(-c3cccc(NC(=O)c4cn(C)c(=O)n(C)c4=O)c3OC)c2Cl)cc2c1[C@@H](NC[C@@H]1CCC(=O)N1)CC2 [Compound A-53] | ≤ 0.01 | 0.1 to 1 | –
14 | COc1nc(-c2cccc(-c3cccc(NC(=O)c4c[nH]c(=O)n(C)c4=O)c3C)c2Cl)cc2c1[C@@H](NC[C@@H]1CCC(=O)N1)CC2 [Compound A-55] | ≤ 0.01 | ≤ 0.01 | –
15 | COc1nc(-c2cccc(-c3ccc(F)c(NC(=O)c4cn(C)c(=O)n(C)c4=O)c3C)c2Cl)cc2c1[C@@H](NC[C@@H]1CCC(=O)N1)CC2 [Compound A-59] | ≤ 0.01 | 0.01 to 0.1 | –
16 | COc1nc(-c2cccc(-c3cc(F)cc(NC(=O)c4cn(C)c(=O)n(C)c4=O)c3C)c2Cl)cc2c1[C@@H](NC[C@@H]1CCC(=O)N1)CC2 [Compound A-60] | ≤ 0.01 | ≤ 0.01 | –
17 | COc1nc(-c2cc(F)cc(-c3cc(F)cc(NC(=O)c4cn(C)c(=O)n(C)c4=O)c3C)c2Cl)cc2c1[C@@H](NC[C@@H]1CCC(=O)N1)CC2 [Compound A-64] | ≤ 0.01 | ≤ 0.01 | –
18 | COc1nc(-c2cccc(-c3cc(F)cc(NC(=O)c4cn(C)c(=O)n(C)c4=O)c3Cl)c2Cl)cc2c1[C@@H](NC[C@@H]1CCC(=O)N1)CC2 [Compound A-65] | ≤ 0.01 | ≤ 0.01 | –
19 | COc1nc(-c2ccc(F)c(-c3cccc(NC(=O)c4cn(C)c(=O)n(C)c4=O)c3C)c2F)cc2c1[C@@H](NC[C@@H]1CCC(=O)N1)CC2 [Compound A-68] | ≤ 0.01 | – | 0.01 to 0.1

Now from value to compound:

Row | IC50 [1] [µM] | EC50 ([2]; Homo sapiens, Jurkat, 6 h) [µM] | EC50 [2] [µM] | SMILES
20 | 0.01 to 0.1 | 0.1 to 1 | – | COc1nc(-c2cccc(-c3cccc(NC(=O)c4cn(C)c(=O)n(C)c4=O)c3Cl)c2Cl)cc2c1[C@@H](N1CC3(COCC(=O)N3)C1)CC2 (single isomer, unassigned) [Compound A-133]
21 | ≤ 0.01 | 0.1 to 1 | – | COc1nc(-c2cccc(-c3cccc(NC(=O)c4cn(C)c(=O)n(C)c4=O)c3Cl)c2Cl)cc2c1[C@@H](NC[C@@H]1CNC(=O)C1)CC2 (single isomer, unassigned) [Compound A-135]
22 | ≤ 0.01 | ≤ 0.01 | – | COc1nc(-c2cccc(-c3cccc(NC(=O)c4ccnn(C)c4=O)c3Cl)c2Cl)cc2c1C(N1CC(C(=O)O)C1)CC2 (single isomer, unassigned) [Compound J-1]
23 | ≤ 0.01 | ≤ 0.01 | – | COc1nc(-c2cccc(-c3cccc(NC(=O)c4ccnn(C)c4=O)c3C)c2Cl)cc2c1[C@@H](N1CC(C(=O)O)C1)CC2 (single isomer, unassigned) [Compound J-2]
24 | ≤ 0.01 | – | 0.01 to 0.1 | COc1nc(-c2cccc(-c3cccc(NC(=O)c4cn(C)c(=O)n(C)c4=O)c3C)c2Cl)cc2c1C(NC[C@@H]1CCC(=O)N1)C(F)C2 (single isomer, unassigned) [Compound K-1a]
25 | ≤ 0.01 | – | 0.1 to 1 | COc1nc(-c2cccc(-c3cccc(NC(=O)c4cn(C)c(=O)n(C)c4=O)c3C)c2Cl)cc2c1C(NC[C@@H]1CCC(=O)N1)C(F)C2 (single isomer, unassigned) [Compound K-1b]
26 | ≤ 0.01 | ≤ 0.01 | – | COc1nc(-c2cccc(-c3cccc(NC(=O)c4cn(C)c(=O)n(C)c4=O)c3Cl)c2C)cc2c1[C@@H](NC[C@@H]1CCC(=O)N1)CC2 [Compound A-4]
27 | ≤ 0.01 | 0.01 to 0.1 | – | COc1nc(-c2cccc(-c3cccc(NC(=O)c4cn(C)c(=O)n(C)c4=O)c3F)c2C)cc2c1[C@@H](NC[C@@H]1CCC(=O)N1)CC2 [Compound A-6]
28 | ≤ 0.01 | ≤ 0.01 | – | COc1nc(-c2cccc(-c3cccc(NC(=O)c4cn(C)c(=O)n(C)c4=O)c3Cl)c2F)cc2c1[C@@H](NC[C@@H]1CCC(=O)N1)CC2 [Compound A-7]
29 | ≤ 0.01 | ≤ 0.01 | – | COc1nc(-c2cccc(-c3cccc(NC(=O)c4cn(C)c(=O)n(C)c4=O)c3C)c2F)cc2c1[C@@H](NC[C@@H]1CCC(=O)N1)CC2 [Compound A-8]
30 | ≤ 0.01 | ≤ 0.01 | – | COc1nc(-c2cccc(-c3cccc(NC(=O)c4ccnn(C)c4=O)c3C)c2Cl)cc2c1[C@@H](NC[C@@H]1CCC(=O)N1)CO2 [Compound A-46]
31 | ≤ 0.01 | ≤ 0.01 | – | COc1nc(-c2cccc(-c3cccc(NC(=O)c4ccnn(C)c4=O)c3C)c2Cl)cc2c1[C@@H](NC[C@@H]1CCC(=O)N1)CC2 [Compound A-47]
32 | ≤ 0.01 | ≤ 0.01 | – | COc1nc(-c2cccc(-c3cccc(NC(=O)c4ccn[nH]c4=O)c3Cl)c2Cl)cc2c1[C@@H](NC[C@@H]1CCC(=O)N1)CC2 [Compound A-51]
33 | ≤ 0.01 | 0.01 to 0.1 | – | COc1nc(-c2cccc(-c3cccc(NC(=O)c4ccn[nH]c4=O)c3C)c2Cl)cc2c1[C@@H](NC[C@@H]1CCC(=O)N1)CC2 [Compound A-52]
34 | ≤ 0.01 | 0.01 to 0.1 | – | COc1nc(-c2cccc(-c3cccc(NC(=O)c4c[nH]c(=O)[nH]c4=O)c3C)c2Cl)cc2c1[C@@H](NC[C@@H]1CCC(=O)N1)CC2 [Compound A-54]
35 | ≤ 0.01 | 0.01 to 0.1 | – | COc1nc(-c2cccc(-c3cccc(NC(=O)c4cn(C)c(=O)[nH]c4=O)c3C)c2Cl)cc2c1[C@@H](NC[C@@H]1CCC(=O)N1)CC2 [Compound A-56]
36 | ≤ 0.01 | ≤ 0.01 | – | COc1nc(-c2cccc(-c3cccc(NC(=O)c4cn(C)c(=O)n(C)c4=O)c3C#N)c2Cl)cc2c1[C@@H](NC[C@@H]1CCC(=O)N1)CC2 [Compound A-57]
37 | ≤ 0.01 | ≤ 0.01 | – | COc1nc(-c2cccc(-c3cccc(NC(=O)c4nn(C)c(=O)n(C)c4=O)c3C)c2Cl)cc2c1[C@@H](NC[C@@H]1CCC(=O)N1)CC2 [Compound A-58]
38 | ≤ 0.01 | 0.01 to 0.1 | – | COc1nc(-c2cccc(-c3cc(Cl)cc(NC(=O)c4cn(C)c(=O)n(C)c4=O)c3C)c2Cl)cc2c1[C@@H](NC[C@@H]1CCC(=O)N1)CC2 [Compound A-61]
39 | ≤ 0.01 | ≤ 0.01 | – | COc1nc(-c2cccc(-c3cc(F)cc(NC(=O)c4nn(C)c(=O)n(C)c4=O)c3C)c2Cl)cc2c1[C@@H](NC[C@@H]1CCC(=O)N1)CC2 [Compound A-62]
40 | ≤ 0.01 | ≤ 0.01 | – | COc1nc(-c2cccc(-c3cc(F)cc(NC(=O)c4ccnn(C)c4=O)c3C)c2Cl)cc2c1[C@@H](NC[C@@H]1CCC(=O)N1)CC2 [Compound A-63]
41 | ≤ 0.01 | 0.01 to 0.1 | – | COc1nc(-c2cc(F)cc(-c3cc(F)cc(NC(=O)c4cn(C)c(=O)n(C)c4=O)c3Cl)c2Cl)cc2c1[C@@H](NC[C@@H]1CCC(=O)N1)CC2 [Compound A-66]
42 | ≤ 0.01 | ≤ 0.01 | – | COc1nc(-c2ccc(F)c(-c3cccc(NC(=O)c4cn(C)c(=O)n(C)c4=O)c3C)c2F)cc2c1[C@@H](NC[C@@H]1CCC(=O)N1)CC2 [Compound A-67]
43 | ≤ 0.01 | ≤ 0.01 | – | COc1nc(-c2cc(F)cc(-c3cccc(NC(=O)c4cn(C)c(=O)n(C)c4=O)c3C)c2Cl)cc2c1[C@@H](NC[C@@H]1CCC(=O)N1)CC2 [Compound A-69]
